Results published in US10590101B2, “Benzo-N-hydroxy amide compounds having antitumor activity” (ITALFARMACO SPA, priority 2016, dated 2020).
Like-named read-outs stand apart in the source and are kept apart here.

Tests used:
[1] = system: HCT116 cells; assay: Cytotoxicity in vitro, HCT116 (CellTiter 96 Aqueous One Solution); type: cell-based, human; conditions: for IC50: Homo sapiens, HCT-116, 72 h incubation
From the text: The compounds of the present invention are small molecules of formula (I), characterised by the presence of a metal chelating moiety, the benzohydroxamate, an α-aminoacidic N-acylated central core and an α,β-unsaturation at the acyl-moiety. This particular structural feature seems responsible for the high inhibitory activity on cancer stem cell lines and on HCT116 cells (ATCC CCL-247), a human colorectal carcinoma cell line widely used in cancer biology both in vitro and in vivo (Botchkina Cancer Genom Proteom 6, 19-30, 2009; Yeung PNAS 107, 3722-3727, 2010).
(§1) The cytotoxicity activity was evaluated as follows: • Pre-B leukemia cell line 697 was seeded at 2×10^5 c/well; • Colon carcinoma cell lines HCT116, HT29 and COLO2015 were seeded at 4×10^3, 4×10^3 and 10×10^3 c/well respectively; • Primary human kidney cells were seeded at 1.5×10^3 and 6.5×10^3 in two separate experiments; • Human PBMC were seeded at 5×10^5 c/well; • Colon cancer stem cells (CSC) were seeded at 3×10^3;
(§2) Testing compounds were added after 24 h and incubated for 72 h (48 h for 697 cell line). The concentrations of molecules ranged from 10000 nM to 1.5 nM (10000 to 1 nM for 697 cell line). The cytotoxic activity of compounds was evaluated using the CellTiter 96® Aqueous One Solution Cell Proliferation Assay (Promega) which measures the functionality of mitochondria according to manufacturer's instructions. For Colon cancer stem cells viability was determined with CellTiter-Glo Luminescent cell viability assay (Promega).
(§3) The activity of compounds at any dose is calculated as percentage of inhibition versus vehicle-treated control (=0). The IC50s are extrapolated from the inhibition dose/response curve using GraphPad Prism program.

[2] = system: Colon cancer stem cells (CSC) CSC1; assay: Cytotoxicity in vitro, colon cancer stem cells CSC1 (CellTiter-Glo); type: cell-based; conditions: 72 h incubation
Protocol: as §1, §2, §3

[3] = system: Pre-B leukemia cell line 697; assay: Primary cytotoxicity screening, 697 cell line (CellTiter 96); type: cell-based; conditions: Table 1; 48 h incubation; read-out: CyTox697
Protocol: as §1, §2, §3

[4] = system: HT29 colon cancer cell line; assay: Cytotoxicity in vitro, HT29 (CellTiter 96); type: cell-based; conditions: Homo sapiens, HT-29; 72 h incubation; read-out: HT29 IC 50
Protocol: as §1, §2
(§4) The compound cytotoxicity was confirmed by further assays on two other colon cancer cell lines HT29 (ATCC HTB38) and Colo205 (ATCC CCL222) and on colon cancer stem cells (CSCs) (see table 2 and 3). It is worth noting that cytotoxic activity toward human primary kidney cells and peripheral blood mononuclear cells (PBMC) isolated from healthy donors was lower compared to tumor cells cytotoxicity (see table 4).
as §3

[5] = system: COLO205 colon cancer cell line; assay: Cytotoxicity in vitro, COLO205 (CellTiter 96); type: cell-based; conditions: Homo sapiens, COLO 205; 72 h incubation; read-out: COLO205 IC 50
Protocol: as §1, §2, §4, §3

[6] = system: Colon cancer stem cells (CSC) CSC2; assay: Cytotoxicity in vitro, colon cancer stem cells CSC2 (CellTiter-Glo); type: cell-based; conditions: 72 h incubation; read-out: CSC2 IC 50
Protocol: as §1, §2, §3

[7] = system: Colon cancer stem cells (CSC) CSC3; assay: Cytotoxicity in vitro, colon cancer stem cells CSC3 (CellTiter-Glo); type: cell-based; conditions: 72 h incubation; read-out: CSC3 IC 50
Protocol: as §1, §2, §3

[8] = system: Human PBMC; assay: Cytotoxicity in vitro, PBMC from healthy donors (CellTiter 96); type: cell-based
Protocol: as §1, §2, §4, §3

[9] = system: Primary human kidney cells; assay: Cytotoxicity in vitro, primary renal cells (CellTiter 96); type: cell-based
Protocol: as §1, §2, §4, §3

[10] = system: HCT116 xenograft; assay: Antitumor activity in vivo, sc xenograft model of colon cancer; parameters: species or system CD1 nude female mice; conditions: ip
Protocol: Female CD-1 nude mice, 5 weeks of age and 20 to 22 g of weight, were housed in the animal house of the Italfarmaco Research Centre. Mice were maintained in micro isolator cages and supplied with sterile food and water under standard conditions.
Xenografts were generated by sc injection of 7×10^6 HCT116 cells in the right flank of the animals.
Tumor sizes were determined by caliper measurements and tumor volumes were calculated according to the following formula: Tumor volume (mm^3)=(w2×1)/2 where “w” is the width and “l” is the length of the carcinoma in mm.
Tumor growth was followed by volume measurement three times a week.
Tumor mass reached a measurable size three weeks after transplantation, at this time, treatments began.
Two reference compounds were also used in the experiment. The cinnamic hydroxamic acid panobinostat and 5-FU. The compounds were administered at the MTD according to previous experiments or as described in the literature.

[11] = Force degradation test (chemical stability); type: physicochemical
[12] = Table 2, read-out: HCT-116 IC 50
[13] = PBMC 1, 72 h incubation, read-out: PBMC 1 IC 50
[14] = PBMC 2, 72 h incubation, read-out: PBMC 2 IC 50
[15] = Renal.ep1, 72 h incubation, read-out: Renal.ep1 IC 50
[16] = Renal.ep2, 72 h incubation, read-out: Renal.ep2 IC 50

SMILES | IC50 ([1]; Table 1, read-out: HCT116) [nM] | IC50 ([2]; Table 1, read-out: CSC1) [nM] | IC50 [3] [nM] | further results
COc1ccc(C[C@H](NC(=O)/C=C/c2ccc3c(c2)OCO3)C(=O)Nc2ccc(C(=O)NO)cc2)cc1 [drawing 46] | 18 | 192 | 3 | 
COc1ccc(C[C@H](NC(=O)/C=C/c2ccc3c(c2)OCO3)C(=O)Nc2ccc(C(=O)NO)cc2)cc1 [Compound 1D, (2S)-2-[[(E)-3-(1,3-benzodioxol-5-yl)prop-2-enoyl]amino]-N-[4-(hydroxycarbamoyl)phenyl]-3-(4-methoxyphenyl)propanamide] |  |  |  | IC50 [1, 12]: 18 nM; IC50 ([2]; Table 3, read-out: CSC1 IC 50): 19 nM; IC50 [4]: 157 nM; IC50 [5]: 146 nM; IC50 [6]: 114 nM; IC50 [7]: 85 nM; IC50 [8, 13]: 80 nM; IC50 [8, 14]: 152 nM; IC50 [9, 15]: 462 nM; IC50 [9, 16]: 321 nM; % inhib tumor vs CTRL after 44 days of treatment ([10]; 0.5 mg/kg): 23%; % inhib tumor vs CTRL after 44 days of treatment ([10]; 1 mg/kg): 22%
O=C(COc1ccccc1)N[C@@H](Cc1ccccc1)C(=O)Nc1ccc(C(=O)NO)cc1 | 466 | 424 | 59 | 
COc1ccc(C[C@H](NC(=O)c2ccccc2)C(=O)Nc2ccc(C(=O)NO)cc2)cc1 | 76 | 48 | 54 | 
COc1ccc(C[C@H](NC(=O)Cc2ccccc2)C(=O)Nc2ccc(C(=O)NO)cc2)cc1 | 316 | 160 | 72 | 
O=C(/C=C/c1ccc2c(c1)OCO2)N[C@@H](Cc1ccccc1)C(=O)Nc1ccc(C(=O)NO)cc1 [Compound 4D, (2S)-2-[[(E)-3-(1,3-benzodioxol-5-yl)prop-2-enoyl]amino]-N-[4-(hydroxycarbamoyl)phenyl]-3-phenyl-propanamide] |  |  |  | IC50 [1, 12]: 19 nM; IC50 ([2]; Table 3, read-out: CSC1 IC 50): 13 nM; IC50 [4]: 215 nM; IC50 [5]: 201 nM; IC50 [6]: 102 nM; IC50 [7]: 91 nM; IC50 [8, 13]: 359 nM; IC50 [8, 14]: 601 nM; IC50 [9, 15]: 778 nM; % inhib tumor vs CTRL after 44 days of treatment ([10]; 5 mg/kg): 54%; % inhib tumor vs CTRL after 44 days of treatment ([10]; 10 mg/kg): 39%
O=C(Cc1ccc2c(c1)OCO2)N[C@@H](Cc1ccccc1)C(=O)Nc1ccc(C(=O)NO)cc1 | 1070 | 208 | 127 | 
COc1ccc(C[C@H](NC(=O)c2ccc3c(c2)OCO3)C(=O)Nc2ccc(C(=O)NO)cc2)cc1 | 24 | 24 | 21 | 
O=C(/C=C/c1ccccc1)N[C@@H](Cc1ccccc1)C(=O)Nc1ccc(C(=O)NO)cc1 [Compound 5D, (2S)—N-[4-(hydroxycarbamoyl)phenyl]-3-phenyl-2-[[(E)-3-phenyl-2-enoyl]amino]propanamide] |  |  |  | IC50 [1, 12]: 14 nM; IC50 ([2]; Table 3, read-out: CSC1 IC 50): 26 nM; IC50 [4]: 197 nM; IC50 [5]: 221 nM; IC50 [6]: 102 nM; IC50 [7]: 230 nM; IC50 [8, 13]: 147 nM; IC50 [8, 14]: 595 nM; IC50 [9, 15]: 1060 nM; IC50 [9, 16]: 511 nM; % inhib tumor vs CTRL after 44 days of treatment ([10]; 5 mg/kg): 46%
O=C(CCc1ccccc1)N[C@@H](Cc1ccccc1)C(=O)Nc1ccc(C(=O)NO)cc1 | 806 | 332 | 770 | 
COc1ccc(C[C@H](NC(=O)CCc2ccc3c(c2)OCO3)C(=O)Nc2ccc(C(=O)NO)cc2)cc1 | 702 | 400 | 496 | 
COc1ccc(C[C@H](NC(=O)Cc2ccc3c(c2)OCO3)C(=O)Nc2ccc(C(=O)NO)cc2)cc1 | 554 | 280 | 168 | 
COc1ccc(C[C@H](NC(=O)COc2ccccc2)C(=O)Nc2ccc(C(=O)NO)cc2)cc1 | 194 |  | 44 | 
O=c1[nH]cc(F)c(=O)[nH]1 [Compound 5-FU, 5-FU, reference compound] |  |  |  | % inhib tumor vs CTRL after 44 days of treatment ([10]; 10 mg/kg): 36%; % inhib tumor vs CTRL after 44 days of treatment ([10]; 70 mg/kg, once a week): 61%
O=C(Cc1ccccc1)N[C@@H](Cc1ccccc1)C(=O)Nc1ccc(C(=O)NO)cc1 | 237 | 192 | 90 | 
O=C(/C=C/c1ccccc1)N[C@@H](Cc1ccccc1)C(=O)Nc1ccc(C(=O)NO)cc1 [drawing 59] | 10 | 73 | 45 | 
O=C(/C=C\c1ccccc1)N[C@@H](Cc1ccccc1)C(=O)Nc1ccc(C(=O)NO)cc1 [Compound 5DZ, (S,Z)—N-hydroxy-4-(3-phenyl-2-(3-phenylacrylamido)propanamido)benzamide] |  |  |  | potency on HCT116 cells compared with the trans-form ([1]; cis-form vs trans-form): less potent; stability at high temperatures ([11]; 15 days at 80° C.): little less stable; stability at low pH ([11]; 15 days at pH 2): definitely less stable; chemical stability compared with the trans ([11]; cis-form vs trans): chemically less stable
COc1ccc(C[C@H](NC(=O)CCc2ccccc2)C(=O)Nc2ccc(C(=O)NO)cc2)cc1 | 431 | 136 | 53 | 
O=C(NO)c1ccc(NC(=O)[C@H](Cc2ccccc2)NC(=O)c2ccccc2)cc1 | 184 | 96 | 105 | 
O=C(/C=C/c1ccc2c(c1)OCO2)N[C@@H](Cc1ccccc1)C(=O)Nc1ccc(C(=O)NO)cc1 [drawing 55] | 11 | 37 | 85 | 
Cc1[nH]c2ccccc2c1CCNCc1ccc(/C=C/C(=O)NO)cc1 [Panobinostat, panobinostat, reference compound] |  |  |  | % inhib tumor vs CTRL after 44 days of treatment ([10]; 1 mg/kg): 34%
O=C(NO)c1ccc(NC(=O)[C@H](Cc2ccccc2)NC(=O)c2ccc3c(c2)OCO3)cc1 | 79 |  | 18 | 
O=C(CCc1ccc2c(c1)OCO2)N[C@@H](Cc1ccccc1)C(=O)Nc1ccc(C(=O)NO)cc1 | 900 | 336 | 203 | 
COc1ccc(C[C@H](NC(=O)/C=C/c2ccccc2)C(=O)Nc2ccc(C(=O)NO)cc2)cc1 [Compound 2D, (2S)—N-[4-(hydroxycarbamoyl)phenyl]-3-(4-methoxyphenyl)-2-[[(E)-3-phenylprop-2-enoyl]amino]propanamide] |  |  |  | IC50 [1, 12]: 14 nM; IC50 ([2]; Table 3, read-out: CSC1 IC 50): 50 nM; IC50 [4]: 61 nM; IC50 [5]: 73 nM; IC50 [6]: 100 nM; IC50 [7]: 70 nM; IC50 [8, 13]: 89 nM; IC50 [8, 14]: 42 nM; % inhib tumor vs CTRL after 44 days of treatment ([10]; 1 mg/kg): 33%
COc1ccc(C[C@H](NC(=O)/C=C/c2ccccc2)C(=O)Nc2ccc(C(=O)NO)cc2)cc1 [drawing 50] | 13 | 40 | 22 | 
